From patent US8338420B1, “Treatment of Parkinson's disease and enhancement of dopamine signal using PDE 10 inhibitor” (Mitsubishi Tanabe Pharma Corporation, priority 2002, dated 2012)

System: rat 6-hydroxydopamine model
Test: Rat 6-hydroxydopamine model, L-dopa induced rotational behaviors
Assay type: in vivo, SD rat
Conditions: 1 mg/kg, i.v.; L-dopa 10 mg/kg i.p. + benserazide 2.5 mg/kg i.p.
Method: Preparation of rat 6-hydroxydopamine model According to the method described in the literature (Koga et al., European Journal of Pharmacology, vol. 408, pp. 249-255, 2000), 6-hydroxydopamine (6-OHDA) was administered in the rat's brain, to cause lesion in the substantia nigra of the brain, to thereby cause motor disability. As the rats, male SD (Sprague Dawley) rats (about 9 to 10 week old) were used. To these rats was administered desipramine (available from Sigma) (25 mg/kg, i.p.). Desipramine was used after being dissolved in distilled water to be 25 mg/ml. […]
One week after administration of 6-OHDA, apomorphine was administered, and rotational behaviors were confirmed to appear due to the lesion of substantia nigra by 6-OHDA in one hemisphere. […] Turnings were counted in every 5-minute interval, until rotational behaviors disappeared or until an event was repeated twice in which the number of turnings became 5 or less during the 5-minute interval. […]
To the model rat prepared in the above (1) (2 weeks after administration of apomorphine), L-dopa and benserazide (dopa decarboxylase inhibitor which inhibits degradation of L-dopa) were administered, and numbers of tunings were measured. […]
L-dopa was administered 30 minutes after benserazide administration, and turnings were counted after L-dopa administration. […]

COc1ccc(-c2cc(N3CCCC3)nc(/C=C/c3nc(-n4ccnc4)c4ccccc4n3)n2)cc1OC [Compound A, 2-{(E)-2-[4-(1-imidazolyl)-quinazolin-2-yl]}ethenyl-4-(3,4-dimethoxy)phenyl-6-(pyrrolidin-1-yl)pyrimidine]
L-dopa induced rotational behaviors, total number of turnings: tended to increase | duration of L-dopa induced rotational behaviors: significantly prolonged
